Where two headings read alike, the source gives them in different places.
How the values were obtained:
[1] = cynomolgus monkey, in vivo, po; for AUC0->24 h / CL / Cmax / t1/2 / tmax: 0.4 mmol/kg
[2] = Plasma stability, monkey
[3] = Plasma stability, mouse
[4] = Plasma stability, human
[5] = test system: Influenza A/Wisconsin/67/2005 (H3N2); parameters: species or system ferrets; conditions: in vivo
[6] = in vitro; conditions: mouse, microsomes
[7] = in vitro; conditions: rat, microsomes
[8] = in vitro; conditions: dog, microsomes
[9] = test system: Influenza A/California/07/2009 (H1N1); parameters: species or system ferrets; conditions: in vivo, po
[10] = in vitro; conditions: human, microsomes
[11] = in vitro; conditions: monkey, microsomes
[12] = test system: HepG2 cells
[13] = test system: Vero cells
[14] = mouse, in vivo
[15] = test system: CEM cells
[16] = test system: Huh-7 cells

SMILES	Plasma t1/2 [2]	Plasma t1/2 [3]	Plasma t1/2 [4]	F ([1]; female)	AUC0->24 h ([1]; female)	CL ([1]; female)	t1/2 ([1]; female)	tmax ([1]; female)	AUC0->24 h ([1]; male)	CL ([1]; male)	t1/2 ([1]; male)	tmax ([1]; male)	half-life [10]	half-life [11]	further results
CC(C)[C@H](N)C(=O)OC[C@H]1O[C@@H](n2ccc(NO)nc2=O)[C@H](O)[C@@H]1O [EIDD-2898]	138 min	144 min	198 min	–	–	–	–	–	–	–	–	–	–	–	F [1]: ~15%; F* [1]: ~18%
CC(C)C(=O)OC[C@H]1O[C@@H](n2ccc(NO)nc2=O)[C@H](O)[C@@H]1O [EIDD-2801]	–	–	–	~26%	43.8 ± 17.0 µM·h	172 ± 93.3 mL/min/kg	114 ± 78 min	75 ± 30 min	31.7 ± 7.82 µM·h	217 ± 61.7 mL/min/kg	108 ± 54.6 min	120 ± 48.6 min	73 min	1 min	viral titers in nasal lavage and turbinates ([5]; 20 mg/kg): greatly reduced; Viral titers in nasal lavage, fever, and viral titers in turbinates ([5]; 100 mg/kg): greatly reduced; half-life [6]: 2 min; half-life [7]: 5 min; Cmax ([1]; female): 12.3 ± 2.33 µM; Cmax ([1]; male): 8.08 ± 1.32 µM; half-life [8]: 1 min; Fever [9]: completely avoided; Viral titers in nasal lavage samples [9]: greatly reduced; viral titers in nasal lavage samples and fever [9]: rapidly reduce viral titers in nasal lavage samples as well as fever
CC(C)C(=O)OC[C@H]1O[C@@H](n2ccc(NO)nc2=O)[C@H](OC(=O)C(C)C)[C@@H]1OC(=O)C(C)C [EIDD-2800]	2 min	1 min	1 min	~16%	27.4 ± 11.5 µM·h	265 ± 128 mL/min/kg	264 ± 72 min	18.6 ± 7.2 min	38.9 ± 7.58 µM·h	152 ± 21.7 mL/min/kg	330 ± 252 min	22.2 ± 8.4 min	1 min	2 min	–
O=c1nc(NO)ccn1[C@@H]1O[C@H](COP(=O)(O)OP(=O)(O)OP(=O)(O)O)[C@@H](O)[C@H]1O [EIDD-2061]	–	–	–	–	–	–	–	–	–	–	–	–	–	–	AUC0->t [12]: 299.8 pmol · h/M cells; Cmax [12]: 470.3 pmol/M Cells; tmax [12]: 960 min; AUC0->t [13]: 13850 pmol · h/M cells; Cmax [13]: 872.0 pmol/M Cells; tmax [13]: 960 min; Brain Cmax ([14]; 225 mg/kg): 3.5 nmol/g; Brain Cmax ([14]; 750 mg/kg): 5.5 nmol/g; AUC0->t [15]: 2355 pmol · h/M cells; Cmax [15]: 171.3 pmol/M Cells; tmax [15]: 1440 min; AUC0->t [16]: 14640 pmol · h/M cells; Cmax [16]: 1113.3 pmol/M Cells; tmax [16]: 1440 min
